{"source": "patent US5358936A", "about": "“Anionic furanose derivatives, methods of making and using the same” (Gordon; Paul, priority 1991, dated 1994)", "system": "mouse blood coagulation", "assay": "Blood coagulation, in vitro clotting time (Example 31 A)", "conditions": "10 μg/ml in normal saline", "note": "Where “and” joins values, the source holds several entries; their conditions need not be identical. Equal entries are not always repeated. Structures can show the parent of a compound that is named as a salt.", "experimental": "To assess the effect on coagulation, if any, of a compound of the invention, a comparative evaluation was made using mouse blood.\nOne ml of freshly drawn mouse blood was added to each tube, and the tube contents were mixed. The clotting time was then noted for each tube, and the results are as shown below:"}
{"smiles": "CC1(C)O[C@H]2O[C@H]([C@@H](COS(=O)(=O)O)OS(=O)(=O)O)[C@H](OS(=O)(=O)O)[C@H]2O1", "note": "[Compound III, 1,2-O-(2-Propylidene)-3,5,6-tri-O-sulfo-α-D-glucofuranose, tripotassium salt]", "values": [{"measurement": "Clotting time, individual mouse", "setting": "control 2.0-6.0, tripotassium salt", "value": "2.0 min and 1.0 min and 4.0 min"}, {"measurement": "Average clotting time", "setting": "control 4.33 ± 1.20, P<0.001", "value": "2.0 ± 0.71", "unit": "min"}]}
